From ChEMBL document CHEMBL1139424, “Design, synthesis, and acetylcholinesterase inhibitory activity of novel coumarin analogues” (Bioorg Med Chem, 2008)
pIC50: −log10 of the molar value.

Molecular target: Acetylcholinesterase (Electrophorus electricus, UniProt O42275)
Assay: Inhibition of Electrophorus electricus brain AChE by Ellman's method

Sequence of Acetylcholinesterase (O42275 whole entry): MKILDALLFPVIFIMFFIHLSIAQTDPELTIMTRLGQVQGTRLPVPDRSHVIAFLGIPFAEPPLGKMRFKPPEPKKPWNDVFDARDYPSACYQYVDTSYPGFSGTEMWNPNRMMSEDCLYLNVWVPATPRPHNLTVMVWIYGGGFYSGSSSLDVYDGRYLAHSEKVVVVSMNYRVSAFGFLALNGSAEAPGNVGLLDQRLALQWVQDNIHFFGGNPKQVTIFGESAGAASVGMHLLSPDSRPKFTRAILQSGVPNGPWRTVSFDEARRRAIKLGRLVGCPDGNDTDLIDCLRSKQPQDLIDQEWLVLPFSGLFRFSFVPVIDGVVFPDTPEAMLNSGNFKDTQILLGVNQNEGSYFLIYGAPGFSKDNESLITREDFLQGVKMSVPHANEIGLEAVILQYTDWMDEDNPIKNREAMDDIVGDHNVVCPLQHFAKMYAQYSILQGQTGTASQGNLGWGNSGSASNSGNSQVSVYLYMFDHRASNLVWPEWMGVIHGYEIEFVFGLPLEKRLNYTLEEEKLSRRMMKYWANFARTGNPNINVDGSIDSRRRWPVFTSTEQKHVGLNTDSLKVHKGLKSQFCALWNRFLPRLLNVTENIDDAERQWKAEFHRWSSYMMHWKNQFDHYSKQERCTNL

Structure (SMILES)	pIC50
Cc1ccc2oc(=O)cc(N3CCN(C(=O)c4ccccc4Cl)CC3)c2c1	4.68
Cc1ccc2oc(=O)cc(N3CCN(c4ccccc4C)CC3)c2c1	5.10
O=C(c1cc2ccccc2oc1=O)N1CCOCC1	4.00
Cc1ccc2oc(=O)cc(N3CCN(c4cc(Cl)ccc4Cl)CC3)c2c1	3.08
O=C(c1cc2ccccc2oc1=O)N1CCN(c2ccccc2)CC1	5.03
O=C(c1ccc(Cl)cc1)N1CCN(C(=O)c2cc3ccccc3oc2=O)CC1	4.68
COc1ccccc1N1CCN(c2cc(=O)oc3ccc(C)cc23)CC1	3.60
O=C(c1ccc([N+](=O)[O-])cc1)N1CCN(C(=O)c2cc3ccccc3oc2=O)CC1	4.47
Cc1ccc(C(=O)N2CCN(c3cc(=O)oc4ccc(C)cc34)CC2)cc1	5.28
COc1ccc(N2CCN(c3cc(=O)oc4ccc(C)cc34)CC2)cc1	4.74
O=C(c1ccccc1Cl)N1CCN(C(=O)c2cc3ccccc3oc2=O)CC1	4.59
Cc1ccc2oc(=O)cc(N3CCN(C)CC3)c2c1	3.05
Cc1ccc(C(=O)N2CCN(C(=O)c3cc4ccccc4oc3=O)CC2)cc1	4.74
Cc1ccc2oc(=O)cc(N3CCN(C(=O)c4ccccc4)CC3)c2c1	5.13
Cc1ccc2oc(=O)cc(N3CCN(C(=O)c4ccc(Cl)cc4)CC3)c2c1	4.80
Cc1ccc(N2CCN(c3cc(=O)oc4ccc(C)cc34)CC2)cc1	4.21
O=c1cc(Cl)c2cc(CN3CCN(c4ccccc4)CC3)ccc2o1	4.72
Cc1ccc2oc(=O)cc(N3CCN(c4ccccc4)CC3)c2c1	5.35
O=C(c1cc2ccccc2oc1=O)N1CCN(c2cc(Cl)ccc2Cl)CC1	4.85
Cc1ccc2oc(=O)cc(N3CCN(c4ccc(Cl)cc4)CC3)c2c1	3.09
COc1ccc(N2CCN(C(=O)c3cc4ccccc4oc3=O)CC2)cc1	5.12
O=C(c1ccccc1)N1CCN(C(=O)c2cc3ccccc3oc2=O)CC1	4.82
Cc1ccc2oc(=O)cc(N3CCOCC3)c2c1	3.06
O=C(c1cc2ccccc2oc1=O)N1CCN(c2ccc(Cl)cc2)CC1	4.01
Cc1ccc(N2CCN(C(=O)c3cc4ccccc4oc3=O)CC2)cc1	5.12
Cc1ccccc1N1CCN(C(=O)c2cc3ccccc3oc2=O)CC1	5.17
COc1ccccc1N1CCN(C(=O)c2cc3ccccc3oc2=O)CC1	4.96
